Measured values as given in patent US5480971A, “Peralkylated oligopeptide mixtures” (Houghten Pharmaceuticals, Inc., priority 1994, dated 1996).
≈ marks a conversion by molar mass, not a printed value. Square brackets hold non-standard residues; d marks the D form. Ends that are not written are not given here. Peptide text beside a SMILES is read from it. * marks the point of attachment. X1 = C[N+](C)(C)[C@@H](Cc1ccccc1)C(=O)*; X2 = CC(C)C[C@@H](C(=O)*)[N+](C)(C)C; NMeF = CN[C@@H](Cc1ccccc1)C(=O)O; NMeI = CC[C@H](C)[C@H](NC)C(=O)O

Experiments:
[1] = system: Staphylococcus aureus (ATCC 29213); test: microbe, parasite or virus in culture; conditions: for S. aureus IC50: Example 8, individual peptides; for S. aureus MIC: no change in OD620 between time 0 and 21 hours; for MIC Value: Table 4, minimum concentration needed to inhibit about 100 percent bacterial growth; for MIC: Staphylococcus aureus, ATCC29213, read-out: MIC Value
Procedure: Concentrations of those 5X permethylated peptide mixtures that inhibited cellular growth by 50 percent (IC50) values were determined.
This culture was reinoculated and incubated at 37° C. to reach the exponential phase of bacterial growth; i.e., a final bacterial suspension containing about 10^5 to 5×10^5 colony-forming units (CFU)/ml. The concentration of cells was established by plating 100 μl of different dilutions of the culture solution (e.g., 10^-2, 10^-3 and 10^-4) onto solid agar plates. Following an overnight (about 18 hours) incubation at 37° C., the CFU thus formed were counted on each agar plate.
96-Well tissue culture plates were utilized, with eight wells per plate containing only medium as control blanks, whereas eight other wells contained medium plus cells as a positive growth control. These controls were used to detect possible medium contamination and to provide a measure of uninhibited growth of the microorganisms.
For determination of IC50 values (concentrations necessary to inhibit 50 percent growth of bacteria), peralkylated oligopeptide sets were added to the bacterial suspension at concentrations noted before. The plates were incubated overnight (about 18 hours) at 37° C., and the optical density (OD) determined at 620 nm after different times of incubation. IC50 values were then determined from the OD data.
Assays using S. aureus were carried out as described before. […] To initiate the exponential phase of bacterial growth prior to the assay, a sample of bacteria grown overnight (about 18 hours) at 37° C. in cation-adjusted Mueller Hinton broth (CAMM, for E. coli and S. aureus--Becton Dickinson Microbiology Systems, Cockeysville, Md.), or Brain Heart Infusion broth (BHI, for S. sanguis), was reinoculated in a 2X broth and incubated at 37° C. MRSA was grown at 35° C. in cation-adjusted MH broth in a similar manner. Prior to the assay, two colonies of newly grown C. albicans culture were inoculated in 5ml of phosphate buffer saline (PBS-35mM phosphate buffer, 0.15M NaCl-pH 7.0), and diluted in yeast medium broth. The bacteria and yeast suspensions were adjusted turbidimetrically so that a final concentration of 10^5 to 5×10^5 colony-forming units (CFU)/ml was used in all assays.
The plates were then incubated overnight at 37° C. […] The concentration necessary to inhibit 50 percent bacterial growth (IC50) was then calculated using the software program […] (ISI, San Diego, Calif.). […] In a similar manner, the plates containing C. albicans suspension were incubated for 48 hours at 30° C.

[2] = system: human red blood cells (RBC's); test: Hemolytic activity on human red blood cells; type: cell-based; conditions: 0.25 percent RBC suspension, one hour at 37° C.
Procedure: Hemolytic activities of the peptides were determined using human red blood cells (RBC's). The assays were carried out in 96-well tissue culture plates against a 0.25 percent RBC suspension as described in Blondelie et al., Biochim. Biophys. Acta, 1202:331-336 (1993), incorporated herein by reference. Briefly, individual permethylated peptides or peptide mixtures were added to the RBC solution at concentrations derived from serial two-fold dilutions varying from […]. Following a one hour incubation at 37° C., the plates were centrifuged at 2800 rpm for 5 minutes. The supernatant was separated from the pellet and its OD measured at 414 nm. Triton (1 percent) and PBS were used as 100 percent and 0 percent hemolysis controls, respectively.

[3] = system: Methicillin-resistant Staphylococcus aureus (MRSA) ATCC 33591; test: Antimicrobial activity against MRSA (growth inhibition); type: cell-based; conditions: for MRSA MIC: no change in OD620 between time 0 and 21 hours
Procedure: (§1) Assays using S. aureus were carried out as described before. Methicillin-resistant Staphylococcus aureus (MRSA) ATCC 33591, Streptococcus sangus ATCC 10566, Escherichia coli ATCC 25922 and Candida albicans ATCC 10231 were used in the bioassays (ATCC, Rockville, Md.). To initiate the exponential phase of bacterial growth prior to the assay, a sample of bacteria grown overnight (about 18 hours) at 37° C. in cation-adjusted Mueller Hinton broth (CAMM, for E. coli and S. aureus--Becton Dickinson Microbiology Systems, Cockeysville, Md.), or Brain Heart Infusion broth (BHI, for S. sanguis), was reinoculated in a 2X broth and incubated at 37° C. MRSA was grown at 35° C. in cation-adjusted MH broth in a similar manner. Prior to the assay, two colonies of newly grown C. albicans culture were inoculated in 5ml of phosphate buffer saline (PBS-35mM phosphate buffer, 0.15M NaCl-pH 7.0), and diluted in yeast medium broth. The bacteria and yeast suspensions were adjusted turbidimetrically so that a final concentration of 10^5 to 5×10^5 colony-forming units (CFU)/ml was used in all assays.
(§2) The assays were carried out in 96-well tissue culture plates (Costar, Pleasanton, Calif.) as described in Blondelie et al., Biochemistry, 31:12688-12694 (1992), incorporated herein by reference. In brief, the bacterial suspension was added to an equal volume of the mixture of permeythylated compounds diluted in H2 O at concentrations derived from serial two-fold dilutions varying from 2500 μg/ml to 1 μg/ml. The plates were then incubated overnight at 37° C. The relative percent growth found for each compound (or mixture of compounds) was then determined by the optical density at 620 nm (OD620) using a Titertek Multiskan Plus apparatus (Flow Laboratories, McLean, Va.). The concentration necessary to inhibit 50 percent bacterial growth (IC50) was then calculated using the software program […] (ISI, San Diego, Calif.). […] In a similar manner, the plates containing C. albicans suspension were incubated for 48 hours at 30° C.

[4] = system: Streptococcus sangus ATCC 10566; test: Assays against S. sanguis (growth inhibition); type: cell-based, Streptococcus sanguis; conditions: for S. sanguis IC50 / S. sanguis MIC: Table 6
Procedure: The permethylated amino acid and peptides were screened against S. aureus and Streptoccus sanguis, as described below, and IC50 and MIC (minimum inhibitory concentration; minimum concentration needed to inhibit about 100 percent bacterial growth) values were determined. […]
as §1, §2

[5] = Merck Index, 10th ed.; cited from earlier work

PerM-PhePhePhePheHisPhe (FFFFHF; also: permethylated) [PerM-FFFFHF]
S. aureus IC50 [1]: 11 µg/mL
S. aureus MIC [1]: 15 to 21 µg/mL
% hemolysis at 350 μg/ml [2]: 3%
MRSA IC50 [3]: 18 µg/mL
MRSA MIC [3]: 21 to 42 µg/mL
S. sanguis IC50 [4]: 19 µg/mL
S. sanguis MIC [4]: 30 to 40 µg/mL

PerM-LeuPhePhePheHisPhe (LFFFHF; also: permethylated) [PerM-LFFFHF]
S. aureus IC50 [1]: 12 µg/mL
S. aureus MIC [1]: 21 to 31 µg/mL
% hemolysis at 350 μg/ml [2]: 4%
MRSA IC50 [3]: 13 µg/mL
MRSA MIC [3]: 15 to 21 µg/mL
S. sanguis IC50 [4]: 19 µg/mL
S. sanguis MIC [4]: 30 to 40 µg/mL

PerM-LeuPheIlePhePheHis (LFIFFH; also: permethylated) [PerM-LFIFFH]
S. aureus IC50 [1]: 12 µg/mL
S. aureus MIC [1]: 21 to 31 µg/mL
% hemolysis at 350 μg/ml [2]: 1%
MRSA IC50 [3]: 20 µg/mL
MRSA MIC [3]: 25 to 42 µg/mL
S. sanguis IC50 [4]: 19 µg/mL
S. sanguis MIC [4]: 30 to 40 µg/mL

C[N+](C)(C)[C@@H](Cc1ccccc1)C(=O)N[C@@H](Cc1ccccc1)C(=O)N[C@@H](Cc1ccccc1)C(=O)N[C@@H](Cc1ccccc1)C(=O)N[C@@H](Cc1ccccc1)C(=O)N[C@@H](Cc1ccccc1)C(N)=O [reference compound] (X1-FFFFF-NH2)
S. aureus IC50 [1]: > 250 µg/mL

CNC(=O)[C@H](Cc1ccccc1)[N+](C)(C)C [PerA-F, permethylated Phe N-methylamide]
MIC Value [1]: > 500 µM
MIC Value ([4]; Table 5): > 500 µM
IC50 ([4]; Table 5, average results): > 500 µM

PerM-PhePheIlePhePheHis (FFIFFH; also: permethylated) [PerM-FFIFFH]
S. aureus IC50 [1]: 14 µg/mL
S. aureus MIC [1]: 31 to 42 µg/mL
% hemolysis at 350 μg/ml [2]: 0%
MRSA IC50 [3]: 19 µg/mL
MRSA MIC [3]: 21 to 42 µg/mL
S. sanguis IC50 [4]: 18 µg/mL
S. sanguis MIC [4]: 30 to 40 µg/mL

CC[C@H](C)[C@@H](C(=O)N(C)[C@@H](Cc1ccccc1)C(=O)N(C)[C@@H](Cc1ccccc1)C(=O)N(C)[C@@H](Cc1ccccc1)C(=O)NC)N(C)C(=O)[C@H](Cc1ccccc1)N(C)C(=O)[C@H](Cc1ccccc1)[N+](C)(C)C [PerM-FFIFFF, PerM-PhePheIlePhePhePhe] (X1-[NMeF][NMeI][NMeF][NMeF][NMeF]-NHMe)
S. aureus MIC ([1]; listed as permethylated FFIFFF-NH2): lower than 15 μg/ml
% hemolysis at 350 μg/ml [2]: 0%

CC[C@H](C)[C@@H](C(=O)N(C)[C@@H](Cc1ccccc1)C(=O)N(C)[C@@H](Cc1ccccc1)C(=O)N(C)[C@@H](Cc1ccccc1)C(=O)NC)N(C)C(=O)[C@H](Cc1ccccc1)N(C)C(=O)[C@H](CC(C)C)[N+](C)(C)C [PerM-LFIFFF, PerM-LeuPheIlePhePhePhe] (X2-[NMeF][NMeI][NMeF][NMeF][NMeF]-NHMe)
S. aureus MIC ([1]; listed as permethylated LFIFFF-NH2): lower than 15 μg/ml
% hemolysis at 350 μg/ml [2]: 12%

C[C@]12CC[C@H]3[C@@H](CCC4=CC(=O)CC[C@@]43C)[C@@H]1CC[C@@H]2O [testosterone]
solubility in water [5]: insoluble in water

PerM-LeuPheIlePheHisPhe (LFIFHF; also: permethylated) [PerM-LFIFHF]
S. aureus IC50 [1]: 12 µg/mL
S. aureus MIC [1]: 21 to 31 µg/mL
% hemolysis at 350 μg/ml [2]: 7%
MRSA IC50 [3]: 14 µg/mL
MRSA MIC [3]: 15 to 21 µg/mL
S. sanguis IC50 [4]: 13 µg/mL
S. sanguis MIC [4]: 20 to 40 µg/mL

CC[C@H]1OC(=O)[C@H](C)[C@@H](O[C@H]2C[C@@](C)(OC)[C@@H](O)[C@H](C)O2)[C@H](C)[C@@H](O[C@@H]2O[C@H](C)C[C@H](N(C)C)[C@H]2O)[C@](C)(O)C[C@@H](C)C(=O)[C@H](C)[C@@H](O)[C@]1(C)O [Erythromycin, reference compound]
MIC [1]: 0.5 µM (≈ 0.367 µg/mL)

N-acetyl hexaPhe amide [N-Ac-hexaPhe, reference compound]
MIC Value [1]: > 500 µM

Cc1onc(-c2ccccc2)c1C(=O)N[C@@H]1C(=O)N2[C@@H]1SC(C)(C)[C@@H]2C(=O)O [Oxacillin, reference compound]
MIC [1]: 0.125 µM (≈ 0.0502 µg/mL)

PerM-LeuPhePhePhePheHis (LFFFFH; also: permethylated) [PerM-LFFFFH]
S. aureus IC50 [1]: 13 µg/mL
S. aureus MIC [1]: 21 to 42 µg/mL
% hemolysis at 350 μg/ml [2]: 3%
MRSA IC50 [3]: 16 µg/mL
MRSA MIC [3]: 21 to 42 µg/mL
S. sanguis IC50 [4]: 22 µg/mL
S. sanguis MIC [4]: 30 to 40 µg/mL

CNC(=O)[C@H](Cc1ccccc1)N(C)C(=O)[C@H](Cc1ccccc1)N(C)C(=O)[C@H](Cc1ccccc1)N(C)C(=O)[C@H](Cc1ccccc1)N(C)C(=O)[C@H](Cc1ccccc1)N(C)C(=O)[C@H](CC(C)C)[N+](C)(C)C [PerM-LFFFFF, PerM-LeuPhePhePhePhePhe] (X2-[NMeF][NMeF][NMeF][NMeF][NMeF]-NHMe)
% hemolysis at 350 μg/ml [2]: 10%

CNC(=O)[C@H](Cc1ccccc1)N(C)C(=O)[C@H](Cc1ccccc1)N(C)C(=O)[C@H](Cc1ccccc1)N(C)C(=O)[C@H](Cc1ccccc1)N(C)C(=O)[C@H](Cc1ccccc1)N(C)C(=O)[C@H](Cc1ccccc1)[N+](C)(C)C [PerA-FFFFFF, PerM-PhePhePhePhePhePhe] (X1-[NMeF][NMeF][NMeF][NMeF][NMeF]-NHMe)
S. aureus MIC ([1]; listed as permethylated FFFFFF-NH2): lower than 15 μg/ml
% hemolysis at 350 μg/ml [2]: 16%

CC(=O)[C@H]1CC[C@H]2[C@@H]3CCC4=CC(=O)CC[C@]4(C)[C@H]3CC[C@]12C [progesterone]
solubility in water [5]: insoluble in water
